# Measurements: US20250032477A1, “COMPOUNDS, PHARMACEUTICAL COMPOSITIONS, AND METHODS FOR THE TREATMENT, PREVENTION, OR MANAGEMENT OF HYPERPROLIFERATIVE DISORDERS” (VINCERX PHARMA GMBH, priority 2021, published 2025)
# Structures can show the parent of a compound that is named as a salt. Where two headings read alike, the source gives them in different places.
# Tests used:
# HT29 [1] = assay: Cytotoxicity in vitro in the presence and absence of elastase (MTT); assay type: cell-based, human
# Protocol: (§1) Cultivation of cells was performed according to standard procedures with the media recommended by the provider. The cells, in a total volume of 100 μL, were seeded in a 96-well plate with a white bottom (#3610). After a 24 h incubation period at 37° C. and […], the medium was exchanged by adding 90 μL fresh medium. The treatment started by adding the test compound in 10 μL of culture medium to the cells in triplicates. Concentrations ranging from 10^−5 M to 10^−13 M were chosen. Two identically treated sets of samples were prepared. One set was treated with the test compound alone, whereas to the second set the compound and 10 nM elastase was added followed by a 72 h incubation period at 37° C. and 5% CO2. The proliferation was detected using the MTT assay (ATCC). At the end of the incubation period the MTT reagent was added to all samples for 4 h. Lysis of the cells followed by addition of the detergent was done overnight. The formed dye was detected at 570 nm. The proliferation of untreated but otherwise identically handled cells was define as the […].
# 786-O [2] = assay: as above; assay type: cell-based, human
# Protocol: as §1
# NCI H292 [3] = assay: as above; assay type: cell-based, human
# Protocol: as §1
# SUM149 [4] = assay: Cytotoxicity assay (Version 2), automated, AC50, with or without elastase; assay type: cell-based
# Protocol: as §1
# (§2) The Cytotoxicity assay (Version 2) was performed as above described. Some changes were applied as the assays were performed in an automated fashion and the IC50 values determination was changed. Here the change in metabolic activity of the cells, in percent, was calculated by normalization of the measured values to the absorbance values of medium containing wells without cells (=−100%) and the absorbance of the DMSO-treated cells (=0%). AC50 values (activity concentration at −50%) were determined by means of a 4 parameter Hill-fit using GeneData Screener software.
# SUM149 [5] = assay: Cytotoxicity in vitro in the presence and absence of elastase (MTT); assay type: cell-based
# Protocol: as §1
# HT29 [6] = assay: Cytotoxicity assay (Version 2), automated, AC50, with or without elastase; assay type: cell-based, human
# Protocol: as §1, §2
# 786-O [7] = assay: as above; assay type: cell-based, human
# Protocol: as §1, §2
# NCI H292 [8] = assay: as above; assay type: cell-based, human
# Protocol: as §1, §2
# [9] = SUM149 cells, Version 2, with elastase, activity concentration at −50%, read-out: SUM149 AC50 +elastase
# [10] = SUM149 cells, Version 2, without elastase, activity concentration at −50%, read-out: SUM149 AC50 −elastase
# [11] = HT29 cells, Version 2, with elastase, activity concentration at −50%, read-out: HT29 AC50 +elastase
# [12] = HT29 cells, Version 2, without elastase, activity concentration at −50%, read-out: HT29 AC50 −elastase
# [13] = 786-O cells, Version 2, with elastase, activity concentration at −50%, read-out: 786-O AC50 +elastase
# [14] = 786-O cells, Version 2, without elastase, activity concentration at −50%, read-out: 786-O AC50 −elastase
# [15] = NCI H292 cells, Version 2, with elastase, activity concentration at −50%, read-out: NCI H292 AC50 +elastase
# [16] = NCI H292 cells, Version 2, without elastase, activity concentration at −50%, read-out: NCI H292 AC50 −elastase
# [17] = read-out: SUM149 AC50 +elastase
# [18] = read-out: SUM149 AC50 −elastase
# [19] = read-out: NCI H292 AC50 +elastase
# [20] = read-out: NCI H292 AC50 −elastase
Compound,AC50 (SUM149 [4]; [9]),AC50 (SUM149 [4]; [10]),AC50 (HT29 [6]; [11]),AC50 (HT29 [6]; [12]),AC50 (786-O [7]; [13]),AC50 (786-O [7]; [14]),AC50 (NCI H292 [8]; [15]),AC50 (NCI H292 [8]; [16]),AC50 (SUM149 [4]; [17]),AC50 (SUM149 [4]; [18]),AC50 (HT29 [6]; read-out: HT29 AC50 +elastase),AC50 (HT29 [6]; read-out: HT29 AC50 −elastase),AC50 (786-O [7]; read-out: 786-O AC50 +elastase),AC50 (786-O [7]; read-out: 786-O AC50 −elastase),AC50 (NCI H292 [8]; [19]),AC50 (NCI H292 [8]; [20]),other results
"CCCNC(=O)Nc1cccc(S(=O)(=O)Nc2cccc([C@@H](CC(=O)O)NC(=O)Nc3ccc(NC(=O)NCCOCCOCCOCCC(=O)N[C@@H](CC(=O)O)C(=O)N4CCC[C@H]4C(=O)N[C@H](C(=O)O[C@]4(CC)C(=O)OCc5c4cc4n(c5=O)Cc5c-4nc4cc(F)c(C)c6c4c5[C@@H](N)CC6)C(C)C)cc3)c2)c1 [Compound 4b, disodium (1S,9S)-1-amino-9-ethyl-5-fluoro-4-methyl-10,13-dioxo-2,3,9,10,13,15-hexahydro-1H,12H-benzo[de]pyrano[3′,4′:6,7]indolizino[1,2-b]quinolin-9-yl 1-{(2S)-2-(carboxylatomethyl)-17-[4-({[(1R)-2-carboxylato-1-{3-[({3-[(propylcarbamoyl)amino]phenyl}sulfonyl)amino]phenyl}ethyl]carbamoyl}amino)anilino]-4,17-dioxo-7,10,13-trioxa-3,16-diazaheptadecan-1-oyl}-L-prolyl-L-valinate]",< 1 nM,11 to 100 nM,1.1 to 10 nM,> 100 nM,1.1 to 10 nM,> 100 nM,1.1 to 10 nM,> 100 nM,,,,,,,,,"IC50 (HT29 [1]; HT29 cells, with 10 nM elastase, 72 h, MTT, read-out: HT29 IC50 w elastase): 0.1 to 1 nM; IC50 (HT29 [1]; HT29 cells, without elastase, 72 h, MTT, read-out: HT29 IC50 w/o): 10 to 100 nM; IC50 (786-O [2]; 786-O cells, with 10 nM elastase, 72 h, MTT, read-out: 786-O IC50 w elastase): 0.01 to 0.1 nM; IC50 (786-O [2]; 786-O cells, without elastase, 72 h, MTT, read-out: 786-O IC50 w/o): 10 to 100 nM; IC50 (NCI H292 [3]; NCI H292 cells, with 10 nM elastase, 72 h, MTT, read-out: NCI H292 IC 50 w elastase): 0.01 to 0.1 nM; IC50 (NCI H292 [3]; NCI H292 cells, without elastase, 72 h, MTT, read-out: NCI H292 IC 50 w/o): 1.1 to 10 nM; IC50 (SUM149 [5]; SUM149 cells, with 10 nM elastase, 72 h, MTT, read-out: SUM149 IC50 w elastase): < 0.01 nM; IC50 (SUM149 [5]; SUM149 cells, without elastase, 72 h, MTT, read-out: SUM149 IC50 w/o): 1.1 to 10 nM"
"CCCNC(=O)Nc1cccc(S(=O)(=O)Nc2cccc([C@@H](CC(=O)O)NC(=O)Nc3ccc(NC(=O)NCCOCCOCCOCCC(=O)N[C@@H](CC(=O)O)C(=O)N4CCC[C@H]4C(=O)N[C@H](C(=O)O[C@]4(CC)C(=O)OCc5c4cc4n(c5=O)Cc5cc6cc7c(cc6nc5-4)OCO7)C(C)C)cc3)c2)c1 [Compound 5, (7S)-7-ethyl-8,11-dioxo-7,8,11,13-tetrahydro-2H,10H-[1,3]dioxolo[4,5-g]pyrano [3′,4′:6,7]indolizino[1,2-b]quinolin-7-yl N-(14-{4-[({(1R)-2-carboxy-1-[3-({3-[(propylcarbamoyl)amino]benzene-1-sulfonyl}amino)phenyl]ethyl}carbamoyl)amino]anilino}-14-oxo-4,7,10-trioxa-13-azatetradecanan-1-oyl)-L-alpha-aspartyl-L-prolyl-L-valinate-bis sodium salt]",,,,,,,,,< 1 nM,11 to 100 nM,1.1 to 10 nM,> 100 nM,1.1 to 10 nM,> 100 nM,< 1 nM,> 100 nM,IC50 (HT29 [1]; read-out: HT29 IC50 w elastase): < 0.01 nM; IC50 (HT29 [1]; read-out: HT29 IC50 w/o): 10 to 100 nM; IC50 (786-O [2]; read-out: 786-O IC50 w elastase): < 0.01 nM; IC50 (786-O [2]; read-out: 786-O IC50 w/o): 1.1 to 10 nM; IC50 (NCI H292 [3]; read-out: NCI H292 IC 50 w elastase): < 0.01 nM; IC50 (NCI H292 [3]; read-out: NCI H292 IC 50 w/o): 1.1 to 10 nM; IC50 (SUM149 [5]; read-out: SUM149 IC50 w elastase): < 0.01 nM; IC50 (SUM149 [5]; read-out: SUM149 IC50 w/o): 1.1 to 10 nM
"CCCNC(=O)Nc1cccc(S(=O)(=O)Nc2cccc([C@@H](CC(=O)O)NC(=O)Nc3ccc(NC(=O)NCCOCCOCCOCCC(=O)N[C@@H](CC(=O)O)C(=O)N4CCC[C@H]4C(=O)N[C@H](C(=O)O[C@]4(CC)C(=O)OCc5c4cc4n(c5=O)Cc5c-4nc4cc(F)c(C)c6c4c5[C@@H](N(C)C)CC6)C(C)C)cc3)c2)c1 [Compound 20, (1S,9S)-1-(dimethylamino)-9-ethyl-5-fluoro-4-methyl-10,13-dioxo-2,3,9,10,13,15-hexahydro-1H,12H-benzo[de]pyrano[3′,4′:6,7]indolizino[1,2-b]quinolin-9-yl N-(14-{4-[({(1R)-2-carboxy-1-[3-({3-[(propylcarbamoyl)amino]benzene-1-sulfonyl}amino)phenyl]ethyl}carbamoyl)amino]anilino}-14-oxo-4,7,10-trioxa-13-azatetradecanan-1-oyl)-L-alpha-aspartyl-L-prolyl-L-valinate]",1.1 to 10 nM,> 100 nM,11 to 100 nM,> 100 nM,1.1 to 10 nM,> 100 nM,1.1 to 10 nM,> 100 nM,,,,,,,,,
CCCNC(=O)Nc1cccc(S(=O)(=O)Nc2cccc([C@@H](CC(=O)O)NC(=O)Nc3ccc(NC(=O)NCCOCCOCCOCCC(=O)NCCCC[C@H](NC(=O)CCOCCOCCOCCNC(=O)Nc4ccc(NC(=O)N[C@H](CC(=O)O)c5cccc(NS(=O)(=O)c6cccc(NC(=O)NCCC)c6)c5)cc4)C(=O)NCCOCCOCCOCCC(=O)N[C@@H](CC(=O)O)C(=O)N4CCC[C@H]4C(=O)N[C@H](C(=O)O[C@]4(CC)C(=O)OCc5c4cc4n(c5=O)Cc5cc6cc7c(cc6nc5-4)OCO7)C(C)C)cc3)c2)c1 [Compound 22],,,,,,,,,< 1 nM,11 to 100 nM,1.1 to 10 nM,> 100 nM,< 1 nM,> 100 nM,< 1 nM,1.1 to 10 nM,
CCCNC(=O)Nc1cccc(S(=O)(=O)Nc2cccc([C@@H](CC(=O)O)NC(=O)Nc3ccc(NC(=O)NCCOCCOCCOCCC(=O)NCCCC[C@H](NC(=O)CCOCCOCCOCCNC(=O)Nc4ccc(NC(=O)N[C@H](CC(=O)O)c5cccc(NS(=O)(=O)c6cccc(NC(=O)NCCC)c6)c5)cc4)C(=O)NCCOCCOCCOCCC(=O)N[C@@H](CC(=O)O)C(=O)N4CCC[C@H]4C(=O)N[C@H](C(=O)O[C@]4(CC)C(=O)OCc5c4cc4n(c5=O)Cc5c-4nc4cc(F)c(C)c6c4c5[C@@H](NC(C)=O)CC6)C(C)C)cc3)c2)c1 [Compound 24],,,,,,,,,1.1 to 10 nM,11 to 100 nM,11 to 100 nM,> 100 nM,1.1 to 10 nM,> 100 nM,1.1 to 10 nM,> 100 nM,
